Patent publication US20250263408A1 (Uniquest Pty Ltd, priority 2022, published 2025)

Columns and labels:
Ba/F3-Syk cells = target: T1, Ba/F3-Syk cells (Homo sapiens, UniProt P43405); test: Ba/F3 Proliferation Assay, Ba/F3-Syk cells (Resazurin); type: cell-based; conditions: 48-hour incubation
T1 construct: fused on or other part: Possible but unprinted fusion partner: TEL (ETV6), the usual partner for Ba/F3 lines transformed by Syk; Nothing on a partner is printed

[1] = system: Ba/F3-WT (wild type) cells; test: Ba/F3 Proliferation Assay, Ba/F3-WT (wild type) cells with mIL-3 (Resazurin); type: cell-based; conditions: Mus musculus, BaF3, 48 h, Ba/F3-WT cells +mIL-3, 48-hour incubation

Structure (SMILES)	EC50 (Ba/F3-Syk cells)	EC50 [1]
CC[C@@]1(COc2nc(-c3cnn(C(C)(C)C)c3)cc3ncccc23)CNCCO1 [Compound 10.14, 7-(1-tert-butyl-1H-pyrazol-4-yl)-5-{[(2S)-2-ethylmorpholin-2-yl]methoxy}-1,6-naphthyridine]	281 nM	2550 nM
CC[C@@]1(COc2nc(-c3cnn(C(C)C)c3)cc3ncccc23)CNCCO1 [Compound 10.16, 5-{[(2S)-2-ethylmorpholin-2-yl]methoxy}-7-[1-(propan-2-yl)-1H-pyrazol-4-yl]-1,6-naphthyridine]	259 nM	1210 nM
C1=C(c2cc(OC[C@@H]3CNCCO3)c3cccnc3c2)CCC1 [Compound 11.1, 7-(cyclopent-1-en-1-yl)-5-{[(2S)-morpholin-2-yl]methoxy}quinoline]	1360 nM	> 10000 nM
CC1(C)CNC[C@@H](COc2cc(-c3cnn4c3CCCC4)cc3ncccc23)O1 [Compound 11.2, 5-{[(2S)-6,6-dimethylmorpholin-2-yl]methoxy}-7-{4H,5H,6H,7H-pyrazolo[1,5-a]pyridin-3-yl}quinoline]	637 nM	8460 nM
C[C@@H](Oc1cc(-c2cnn(C)c2)cc2ncccc12)[C@@H]1CNCC(C)(C)O1 [Compound 11.4, 5-[(1R)-1-[(2S)-6,6-dimethylmorpholin-2-yl]ethoxy]-7-(1-methyl-1H-pyrazol-4-yl)quinoline]	69.7 nM	740 nM
C[C@@H](Oc1cc(-c2ccn(C)c2)cc2ncccc12)[C@@H]1CNCC(C)(C)O1 [Compound 11.5, 5-[(1R)-1-[(2S)-6,6-dimethylmorpholin-2-yl]ethoxy]-7-(1-methyl-1H-pyrrol-3-yl)quinoline]	90.6 nM	1850 nM
Cn1cc(-c2cc(OC[C@@H]3CNCC4(CCC4)O3)c3cccnc3c2)cn1 [Compound 11.7, 7-(1-methyl-1H-pyrazol-4-yl)-5-{[(6S)-5-oxa-8-azaspiro[3.5]nonan-6-yl]methoxy}quinoline]	46.3 nM	1070 nM
C[C@@H](Oc1cc(-c2ccn(C)c2)cc2ncccc12)[C@@H]1CNCCO1 [Compound 11.10, 7-(1-methyl-1H-pyrrol-3-yl)-5-[(1R)-1-[(2S)-morpholin-2-yl]ethoxy]quinoline]	121 nM	1700 nM
Cn1cc(-c2cc(OC[C@@H]3CNCC4(CC4)O3)c3nccnc3c2)cn1 [Compound 12.1, 7-(1-methyl-1H-pyrazol-4-yl)-5-{[(5S)-4-oxa-7-azaspiro[2.5]octan-5-yl]methoxy}quinoxaline]	214 nM	> 10000 nM
C[C@@H]1CNC[C@@H](COc2cc(-c3cnn(C)c3)cc3nccnc23)O1 [Compound 12.5, 7-(1-methyl-1H-pyrazol-4-yl)-5-{[(2S,6R)-6-methylmorpholin-2-yl]methoxy}quinoxaline]	50.9 nM	1300 nM
c1cnc2cc(-c3ccns3)nc(OC[C@@H]3CNCCO3)c2c1 [Compound 13.1, 5-{[(2S)-morpholin-2-yl]methoxy}-7-(1,2-thiazol-5-yl)-1,6-naphthyridine]	586 nM	6360 nM
Cn1ccc(-c2cc3ncccc3c(O[C@@H]([C@@H]3CNCCO3)C(F)(F)F)n2)c1 [Compound 13.3, 7-(1-methyl-1H-pyrrol-3-yl)-5-[(1S)-2,2,2-trifluoro-1-[(2S)-morpholin-2-yl]ethoxy]-1,6-naphthyridine]	1210 nM	> 10000 nM
CC1(C)CCO[C@H](COc2nc(-c3cnn(C(C)(C)C)c3)cc3ncccc23)CN1 [Compound 13.4, 7-(1-tert-butyl-1H-pyrazol-4-yl)-5-{[(2S)-5,5-dimethyl-1,4-oxazepan-2-yl]methoxy}-1,6-naphthyridine]	214 nM	5750 nM
C[C@@H]1NCCO[C@@H]1COc1nc(-c2ccn(C)c2)cc2ncccc12 [Compound 13.5, 7-(1-methyl-1H-pyrrol-3-yl)-5-{[(2S,3S)-3-methylmorpholin-2-yl]methoxy}-1,6-naphthyridine]	51.7 nM	6310 nM
C[C@H](Oc1cc(-c2cnn(C(C)(C)C)c2)cc2ncccc12)[C@@H]1CNCCO1 [Compound 14.1, 7-(1-tert-butyl-1H-pyrazol-4-yl)-5-[(1S)-1-[(2S)-morpholin-2-yl]ethoxy]quinoline]	1340 nM	> 10000 nM
C[C@@H](Oc1cc(-c2cnn(C(C)(C)C)c2)cc2ncccc12)[C@@H]1CNCCO1 [Compound 14.2, 7-(1-tert-butyl-1H-pyrazol-4-yl)-5-[(1R)-1-[(2S)-morpholin-2-yl]ethoxy]quinoline]	81.8 nM	1880 nM
FC(F)c1cc(-c2cc(OC[C@@H]3CNCCO3)c3cccnc3c2)cs1 [Compound 14.3, 7-[5-(difluoromethyl)thiophen-3-yl]-5-{[(2S)-morpholin-2-yl]methoxy}quinoline]	176 nM	1920 nM
FC(F)c1csc(-c2cc(OC[C@@H]3CNCCO3)c3cccnc3c2)c1 [Compound 14.4, 7-[4-(difluoromethyl)thiophen-2-yl]-5-{[(2S)-morpholin-2-yl]methoxy}quinoline]	196 nM	1900 nM
CC(C)(C)c1ccc(-c2cc(OC[C@@H]3CNCCO3)c3cccnc3c2)s1 [Compound 14.5, 7-(5-tert-butylthiophen-2-yl)-5-{[(2S)-morpholin-2-yl]methoxy}quinoline]	428 nM	1200 nM
Cc1cnc2cc(-c3cnn(C(C)C)c3)nc(OC[C@@H]3CNCC(C)(C)O3)c2c1 [Compound 14.10, 5-{[(2S)-6,6-dimethylmorpholin-2-yl]methoxy}-3-methyl-7-[1-(propan-2-yl)-1H-pyrazol-4-yl]-1,6-naphthyridine]	44.9 nM	1070 nM

Stronger by EC50 (Ba/F3-Syk cells), values ahead:

EC50 (Ba/F3-Syk cells)	EC50 [1]	Structure (SMILES)
37.5 nM	558 nM	CC(C)n1cc(-c2cc(O[C@H](C)[C@@H]3CNCC(C)(C)O3)c3cccnc3c2)cn1 [Compound 11.3, 5-[(1R)-1-[(2S)-6,6-dimethylmorpholin-2-yl]ethoxy]-7-[1-(propan-2-yl)-1H-pyrazol-4-yl]quinoline]
36.2 nM	5560 nM	C[C@@H]1NCCO[C@@H]1COc1nc(-c2cnn(C(C)(C)C)c2)cc2ncccc12 [Compound 13.6, 7-(1-tert-butyl-1H-pyrazol-4-yl)-5-{[(2S,3S)-3-methylmorpholin-2-yl]methoxy}-1,6-naphthyridine]
33.4 nM	1790 nM	Cn1ccc(-c2cc(OC[C@@H]3CNCC4(CCC4)O3)c3cccnc3c2)c1 [Compound 11.6, 7-(1-methyl-1H-pyrrol-3-yl)-5-{[(6S)-5-oxa-8-azaspiro[3.5]nonan-6-yl]methoxy}quinoline]
29.1 nM	1620 nM	CC(C)n1cc(-c2cc(OC[C@@H]3CNCC4(CC4)O3)c3nccnc3c2)cn1 [Compound 12.2, 5-{[(5S)-4-oxa-7-azaspiro[2.5]octan-5-yl]methoxy}-7-[1-(propan-2-yl)-1H-pyrazol-4-yl]quinoxaline]
27.5 nM	3070 nM	Cn1ccc(-c2cc(OC[C@@H]3CNCC4(CC4)O3)c3nccnc3c2)c1 [Compound 12.4, 7-(1-methyl-1H-pyrrol-3-yl)-5-{[(5S)-4-oxa-7-azaspiro[2.5]octan-5-yl]methoxy}quinoxaline]
27.3 nM	1300 nM	CC(C)(C)n1cc(-c2cc(OC[C@@H]3CNCC4(CC4)O3)c3nccnc3c2)cn1 [Compound 12.3, 7-(1-tert-butyl-1H-pyrazol-4-yl)-5-{[(5S)-4-oxa-7-azaspiro[2.5]octan-5-yl]methoxy}quinoxaline]
20 nM	865 nM	CC1(C)CNC[C@@H](COc2nc(-c3cnn(C(C)(C)C)c3)cc3nccc(C(F)(F)F)c23)O1 [Compound 14.13, 7-(1-tert-butyl-1H-pyrazol-4-yl)-5-{[(2S)-6,6-dimethylmorpholin-2-yl]methoxy}-4-(trifluoromethyl)-1,6-naphthyridine]
10 nM	1580 nM	CC(C)(C)n1cc(-c2cc(OC[C@@H]3CNCC4(CCC4)O3)c3cccnc3c2)cn1 [Compound 11.9, 7-(1-tert-butyl-1H-pyrazol-4-yl)-5-{[(6S)-5-oxa-8-azaspiro[3.5]nonan-6-yl]methoxy}quinoline]
9.9 nM	478 nM	CC(C)n1cc(-c2cc(OC[C@@H]3CNC[C@@H](C)O3)c3nccnc3c2)cn1 [Compound 12.6, 5-{[(2S,6R)-6-methylmorpholin-2-yl]methoxy}-7-[1-(propan-2-yl)-1H-pyrazol-4-yl]quinoxaline]
9.2 nM	989 nM	C[C@@H]1CNC[C@@H](COc2cc(-c3cnn(C(C)(C)C)c3)cc3nccnc23)O1 [Compound 12.7, 7-(1-tert-butyl-1H-pyrazol-4-yl)-5-{[(2S,6R)-6-methylmorpholin-2-yl]methoxy}quinoxaline]
6.1 nM	803 nM	COCCn1ccc(-c2cc(OC[C@@H]3CNCC(C)(C)O3)c3c(C)ccnc3c2)c1 [Compound 14.11, 5-{[(2S)-6,6-dimethylmorpholin-2-yl]methoxy}-7-[1-(2-methoxyethyl)-1H-pyrrol-3-yl]-4-methylquinoline]
5.9 nM	1220 nM	Cc1ccnc2cc(-c3cnn(C(C)(C)C)c3)cc(OC[C@@H]3CNCC(C)(C)O3)c12 [Compound 14.9, 7-(1-tert-butyl-1H-pyrazol-4-yl)-5-{[(2S)-6,6-dimethylmorpholin-2-yl]methoxy}-4-methylquinoline]
5.5 nM	867 nM	Cc1ccnc2cc(-c3ccn(C4COC4)c3)cc(OC[C@@H]3CNCC(C)(C)O3)c12 [Compound 14.12, 5-{[(2S)-6,6-dimethylmorpholin-2-yl]methoxy}-4-methyl-7-[1-(oxetan-3-yl)-1H-pyrrol-3-yl]quinoline]
